Measurements taken from patent US20030166694A1, “Glycinamides” (priority 2000, published 2003).

Legend:
factor Xa, human = factor Xa, human (Homo sapiens, UniProt P00742); test: Inhibition of factor Xa (table title: Affinity to receptors); assay type: biochemical
From the text: The inhibition of factor Xa by the compounds according to the invention and the measurement of the anticoagulant and antithrombotic activity can be determined by conventional in-vitro or in-vivo methods. A suitable method is described, for example, by J. Hauptmann et al. in Thrombosis and Haemostasis 1990, 63, 220-223.
The inhibition of factor Xa can be measured, for example, by the method of T. Hara et al. in Thromb. Haemostas. 1994, 71, 314-319.

TF/VIIa = TF/VIIa (Homo sapiens, UniProt P08709); test: Inhibition of TF/VIIa (table title: Affinity to receptors); assay type: biochemical
Chain of TF/VIIa (P08709 213-466 limits assumed): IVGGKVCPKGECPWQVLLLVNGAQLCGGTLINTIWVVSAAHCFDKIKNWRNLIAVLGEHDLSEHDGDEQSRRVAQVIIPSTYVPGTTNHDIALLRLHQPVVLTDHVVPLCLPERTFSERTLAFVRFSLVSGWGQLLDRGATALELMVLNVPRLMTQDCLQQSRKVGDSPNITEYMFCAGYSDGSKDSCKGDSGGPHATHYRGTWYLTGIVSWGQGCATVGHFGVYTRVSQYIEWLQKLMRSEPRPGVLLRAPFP
Chain of TF/VIIa (P08709 61-212 limits assumed): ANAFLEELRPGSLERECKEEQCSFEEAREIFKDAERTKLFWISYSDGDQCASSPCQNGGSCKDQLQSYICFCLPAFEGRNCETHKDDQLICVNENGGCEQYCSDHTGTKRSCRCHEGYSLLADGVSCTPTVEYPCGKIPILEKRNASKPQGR
Chain of TF/VIIa (P13726 33-295 partner): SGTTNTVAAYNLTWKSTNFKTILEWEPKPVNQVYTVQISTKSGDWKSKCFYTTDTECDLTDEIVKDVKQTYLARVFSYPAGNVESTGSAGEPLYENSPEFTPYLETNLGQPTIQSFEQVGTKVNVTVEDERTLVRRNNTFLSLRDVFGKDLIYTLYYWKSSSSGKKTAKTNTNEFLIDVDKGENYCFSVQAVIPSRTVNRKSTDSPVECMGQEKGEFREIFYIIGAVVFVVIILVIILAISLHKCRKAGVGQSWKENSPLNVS
From the text: The inhibition of factor VIIa by the compounds according to the invention and the measurement of the anticoagulant and antithrombotic activity can be determined by conventional in-vitro or in-vivo methods. A conventional method for the measurement of the inhibition of factor VIIa is described, for example, by H. F. Ronning et al. in Thrombosis Research 1996, 84, 73-81.

Chain of factor Xa, human (P00742 235-488 limits assumed): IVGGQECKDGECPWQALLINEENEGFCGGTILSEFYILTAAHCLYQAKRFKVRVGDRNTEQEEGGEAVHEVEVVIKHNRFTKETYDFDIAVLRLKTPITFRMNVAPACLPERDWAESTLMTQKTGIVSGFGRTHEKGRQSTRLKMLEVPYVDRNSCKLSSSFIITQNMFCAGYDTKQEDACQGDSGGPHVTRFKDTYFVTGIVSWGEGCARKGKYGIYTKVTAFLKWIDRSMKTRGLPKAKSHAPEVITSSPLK
Chain of factor Xa, human (P00742 41-179 limits assumed): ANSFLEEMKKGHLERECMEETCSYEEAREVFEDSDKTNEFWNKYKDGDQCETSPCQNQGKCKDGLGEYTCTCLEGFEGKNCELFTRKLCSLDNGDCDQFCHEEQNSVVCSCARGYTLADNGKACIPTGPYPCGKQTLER

SMILES | IC50 (factor Xa, human) [nM] | IC50 (TF/VIIa) [nM]
N=C(N)c1cccc(N(CC(=O)Nc2ccc(-c3ccccc3S(N)(=O)=O)cc2)Cc2ccccc2)c1 [N-(2′-aminosulfonylbiphenyl-4-yl)-2-[(3-amidinophenyl)-N-benzylamino]acetamide] | 81 | 15
CC(C)CN(CC(=O)Nc1ccc(-c2ccccc2S(N)(=O)=O)cc1)c1cccc(C(=N)N)c1 [N-(2′-aminosulfonylbiphenyl-4-yl)-2-[(3-amidinophenyl)-N-isobutylamino]acetamide] | 480 | 370
CN(CC(=O)Nc1ccc(-c2ccccc2S(N)(=O)=O)cc1)c1cccc(C(=N)N)c1 [N-(2′-aminosulfonylbiphenyl-4-yl)-2-[(3-amidinophenyl)-N-methylamino]acetamide] | 10 | 25

Next, values leading:

IC50 (factor Xa, human) [nM] | IC50 (TF/VIIa) [nM] | SMILES
130 | 44 | CCCN(CC(=O)Nc1ccc(-c2ccccc2S(N)(=O)=O)cc1)c1cccc(C(=N)N)c1 [N-(2′-aminosulfonylbiphenyl-4-yl)-2-[(3-amidinophenyl)-N-propylamino]acetamide]
120 | 31 | CCCN(CC(=O)Nc1ccc(-c2ccccc2S(C)(=O)=O)cc1)c1cccc(C(=N)N)c1 [N-(2′-methylsulfonylbiphenyl-4-yl)-2-[(3-amidinophenyl)-N-propylamino]acetamide]
